In patent EP3086659B1, “NUTRITIONAL COMPOSITION FOR THE PREVENTION AND TREATMENT OF COPD AND RELATED SYMPTOMS” (Thompson S.r.L., priority 2013, dated 2015):
Like-named read-outs stand apart in the source and are kept apart here.

Key:
[1] = Clinical study on volunteers: blood (serum) concentration and pharmacokinetic parameters of curcumin after oral administration; format: in vivo, healthy volunteers
Method: Subsequently, up to 1 h, a rapid decrease is observed followed by a gradual decline to 0 in the next three hours. The following Table lists the pharmacokinetic parameters (mean ± SEM). Table
The maximum serum concentration, when administered alone, was just 0.006 µg/ml 1 hour after administration, while in combination with piperine, the maximum serum concentration (Cmax) had increased to 0.18 µg/ml and was reached earlier at 0.75 h from the administration. The volume of distribution (Vd) and the total clearance value (CI) were not calculated for curcumin administered alone as it was not possible to determine the serum levels in most of the measurements of the greater number of subjects. […] 4 and in the preceding table reflect an increase in the bioavailability of curcumin equal to 2000% in the subjects treated with the combination of curcumin and piperine.

[2] = test system: Human alveolar epithelial cells A549; assay: Determination of intracellular glutathione (GSH and GSSG), glutathione reductase-recycling analysis; format: cell-based; details: different concentrations (0-50 µM), 6 hours
Method: Curcumin (CUR), N-acetyl-L-cysteine (NAC) and glutathione in reduced (GSH) and oxidised (GSSG) form and other reagents were supplied by Sigma. Human alveolar epithelial cells A549 were purchased from American Type Culture Collection (ATCC CCL-185). Levels of reduced (GSH) and oxidised (GSSG) Glutathione were measured after exposure of the cells for 6 hours to curcumin, NAC and curcumin and NAC association (ratio 1/1) using the method already described in Calabrese et al. 1998; Motterlini et al. 2000a). Cells harvested in cold PBS were frozen-thawed three times and an aliquot of this suspension was added to a buffer solution containing […] of EDTA and 10 mM of 5,5-dithiobis- (2-nitrobenzoic acid). The total glutathione was measured by spectroscopy (optical density of 412 nm) using the glutathione reductase-recycling analysis. In order to determine the quantity of GSSG, an aliquot of the cell suspension was added to an equal volume of buffer containing EDTA and N-ethylmaleimide (10 mM). The sample was mixed and centrifuged and the supernatant was passed through a Sep-Pak C18 cartridge (Waters, Milford, MA) to remove the excess of N-ethylmaleimide. […] Intracellular glutathione was determined by comparison with a standard curve obtained with standard solutions of GSH and GSSG and was expressed as nmoles/mg protein. […]

Nrf2 [3] = assay: Expression of Nrf2 protein in nuclear extracts (Western blot); format: cell-based, Human; details: 15 µM, after one hour up to 12h, three independent Western blots
Description: Curcumin (CUR), N-acetyl-L-cysteine (NAC) and glutathione in reduced (GSH) and oxidised (GSSG) form and other reagents were supplied by Sigma. Human alveolar epithelial cells A549 were purchased from American Type Culture Collection (ATCC CCL-185). […] The combination of NAC and CUR induced a slightly higher level of Nrf2 expression.

Nrf2 [4] = assay: Nrf2 mRNA expression by quantitative real-time PCR compared to GAPDH; format: cell-based, Human; details: 15 µM, 6 h
Description: (§1) Curcumin (CUR), N-acetyl-L-cysteine (NAC) and glutathione in reduced (GSH) and oxidised (GSSG) form and other reagents were supplied by Sigma. Human alveolar epithelial cells A549 were purchased from American Type Culture Collection (ATCC CCL-185). […] GRX is a key enzyme in the regulation of the cellular oxidative state, being responsible for the regeneration of GSH from GSSG and in the regeneration of dehydroascorbate.

HO-1 = HO-1 mRNA expression by quantitative real-time PCR compared to GAPDH; format: cell-based, Human; details: 15 µM, 6 h
Description: as §1

[5] = test system: glutathione reductase (GRX); assay: Glutathione reductase (GRX) mRNA expression by quantitative real-time PCR compared to GAPDH; format: cell-based, Human; details: 15 µM, 6 h
Description: as §1

SMILES | Tmax ([1]; human, 2 g, serum curcumin, oral administration, healthy volunteers (n = 8), mean ± SEM) | Cmax ([1]; human, 2 g, serum curcumin, oral administration, healthy volunteers (n = 8), mean ± SEM, read-out: Cmax) | Serum levels of curcumin ([1]; oral, 2 g of curcumin alone or with 20 mg of piperine, measurements up to 0.75 h) | Cmax ([1]; serum curcumin, oral administration, healthy volunteers (n = 8), mean ± SEM) | AUC(0-∞) ([1]; serum curcumin, oral administration, healthy volunteers (n = 8), trapezoidal method, mean ± SEM) | levels of GSSG [2] | intracellular GSH ([2]; dose-dependent) | expression of the protein Nrf2 in the nucleic extracts (Nrf2 [3]) | Nrf2 mRNA (Nrf2 [4]) | HO-1 mRNA (HO-1) | glutathione reductase (GRX) mRNA [5]
COc1cc(/C=C/C(=O)CC(=O)/C=C/c2ccc(O)c(OC)c2)ccc1O [Curcumin, (1E, 6E)-1,7-bis-(4-hydroxy-3-methoxyphenyl)-epta-1,6-dien-3,5-dione] | 1 h | 6 ng/mL | very low or undetectable | 6 ± 5 ng/mL | 0.004 µg/h/mL |  |  |  |  |  | 
CC(=O)N[C@@H](CS)C(=O)O [NAC, N-acetyl-L-cysteine] |  |  |  |  |  | did not increase | increase of GSH | not able to induce an increase | not active | not active | able to induce GRX significantly
